According to PubChem BioAssay (NCI):
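All cell lines were grown in 96-well plates and treated with compound for 48 hours. At the GI50, growth is halved. TGI: concentration producing complete growth inhibition.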

Legend:
Experiment in all cases: NCI anticancer screen, dose series, 48 h
NCI-H460 lung = system: NCI-H460 lung
U251 CNS = system: U251 CNS
MOLT-4 leukemia = system: MOLT-4 leukemia
UACC-62 melanoma = system: UACC-62 melanoma
MDA-MB-231 breast = system: MDA-MB-231 breast
SF-539 CNS = system: SF-539 CNS
CCRF-CEM leukemia = system: CCRF-CEM leukemia
OVCAR-3 ovarian = system: OVCAR-3 ovarian
SW-620 colon = system: SW-620 colon
SNB-19 CNS = system: SNB-19 CNS

Structure (SMILES)	TGI (NCI-H460 lung) [µM]	TGI (U251 CNS) [µM]	TGI (MOLT-4 leukemia) [µM]	TGI (UACC-62 melanoma) [µM]	TGI (MDA-MB-231 breast) [µM]	TGI (SF-539 CNS) [µM]	TGI (CCRF-CEM leukemia) [µM]	TGI (OVCAR-3 ovarian) [µM]	TGI (SW-620 colon) [µM]	TGI (SNB-19 CNS) [µM]	GI50 (SNB-19 CNS) [µM]	GI50 (NCI-H460 lung) [µM]	GI50 (UACC-62 melanoma) [µM]	GI50 (MDA-MB-231 breast) [µM]	GI50 (SW-620 colon) [µM]	GI50 (SF-539 CNS) [µM]	GI50 (CCRF-CEM leukemia) [µM]	GI50 (OVCAR-3 ovarian) [µM]
O=c1c(O)c(-c2ccccc2)oc2c(CP(=O)(O)O)cccc12	> 100	> 100	> 100	> 100	> 100	> 100	> 100	> 100	–	–	–	–	–	–	–	–	–	–
CCCCCc1cc2cc3c(c(O)c2c(=O)[nH]1)C1(CCC3)C(=O)c2c(O)ccc(O)c2C1=O	> 100	> 100	> 100	–	> 100	> 100	> 100	> 100	> 100	> 100	–	–	–	–	–	–	–	–
O=C(O)c1cc(NCc2cc(O)ccc2O)ccc1O	> 100	> 100	–	> 100	> 100	> 100	> 100	> 100	50.6	> 100	–	–	–	–	–	–	–	–
Cc1cc(C)[n+]2c(c1)C=CC2	> 100	> 100	–	–	–	79.4	–	38.6	> 100	> 100	–	–	–	–	–	–	–	–
COc1cc2nc(-c3cccs3)nc(N3CCN(c4ccccc4)CC3)c2cc1OC	> 100	> 100	–	> 100	> 100	> 100	–	> 100	> 100	> 100	–	–	–	–	–	–	–	–
COc1cc(C2c3cccc4cccc(c34)C3CCC(=O)N32)cc(OC)c1O (stereo not given)	> 50	> 50	> 50	> 50	–	> 50	> 50	> 50	> 50	> 50	–	–	–	–	–	–	–	–
CCOP(=O)(OCC)/C(=C/n1c(=S)[nH]c2ccccc21)C(=O)OC	> 31.6	> 100	> 100	> 100	> 100	> 100	> 100	–	> 100	> 100	> 100	–	–	–	–	–	–	–
CCOC(=O)c1sc2nc(SC)nc3c2c1NCN3C	> 100	46.9	–	> 100	92.5	–	> 100	> 100	–	75.3	–	–	–	–	–	–	–	–
COC(=O)/C=C1\C(CO[Si](C)(C)C(C)(C)C)OC(n2cc(C)c(=O)n(C)c2=O)C1O[Si](C)(C)C(C)(C)C (stereo not given)	–	> 100	> 100	> 100	> 100	–	> 100	> 100	> 100	> 100	–	–	–	–	–	–	–	–
Clc1ccc(C2SCc3nc4ccccc4n32)cc1 (stereo not given)	93.3	66.2	56.1	43.6	–	76.8	78.9	> 100	> 100	77	–	–	–	–	–	–	–	–
N#CCCN(CCCCN(CCC#N)C(=O)Nc1ccccc1)C(=O)Nc1ccccc1	> 100	> 100	> 100	> 100	> 100	–	–	> 100	> 100	> 100	–	–	–	–	–	–	–	–
[N-]=[N+]=Nc1cc(=O)[nH]c2ccccc12	–	> 100	> 100	> 100	> 100	> 100	> 100	> 100	> 100	> 100	–	–	–	–	–	–	–	–
Cc1ccc(/C=c2\c(=O)[nH]c3nc4ccccc4c(=O)n23)cc1	–	38	> 100	> 100	> 100	43.7	> 100	> 100	48.8	> 100	–	–	–	–	–	–	–	–
COc1ccc(NC(=O)CSC(=O)c2ccccc2)c(SCCSSCCSc2cc(OC)ccc2NC(=O)CSC(=O)c2ccccc2)c1	> 100	> 100	> 100	> 100	–	> 100	> 100	> 100	> 100	> 100	–	–	–	–	–	–	–	–
CCN(CC)/N=C\c1c2ccccc2cc2ccccc12	> 100	> 100	> 100	> 100	> 100	> 100	94.4	–	> 100	> 100	–	–	–	–	–	–	–	–
CCOC(=O)Cc1[nH]c(C(=O)c2ccccc2)cc1C(=O)c1ccccc1	> 100	> 100	85.7	> 100	> 10	–	> 10	> 100	> 100	> 100	–	–	–	–	–	–	–	–
COc1cc(C(c2ccccc2)N2C(=O)CC[C@H]2C(=O)O)cc(OC)c1OC (stereo not given in full)	> 100	> 100	> 100	> 100	–	> 100	> 100	> 100	> 100	> 100	–	–	–	–	–	–	–	–
N=c1ncn(C/C=C/c2ccccc2)c2nc[nH]c12	> 100	> 100	36.5	> 100	> 100	> 100	–	> 100	> 100	> 100	–	–	–	–	–	–	–	–
Cc1ccc2sc3c(NCCCN)nc4ccccc4c3c(=O)c2c1	3.56	–	–	3.24	3.3	3.21	5.61	3.32	3.54	3.69	1.86	1.84	1.74	1.7	1.79	1.76	2.32	1.82
O=S(=O)(O)c1ccc(O)c(N=Nc2c(O)ccc3ccccc23)c1	–	> 100	> 100	> 100	> 100	–	86.9	> 100	> 100	> 100	–	–	–	–	–	–	–	–
CC1(C)CCC2=C(O1)c1ccccc1C(=Nc1ccc([N+](=O)[O-])cc1)C2=O	29.1	28.9	> 100	30.9	43.2	–	46.7	25.3	29.6	32.5	–	–	–	–	–	–	19.6	–
OCc1ccc2c(c1)CC1(Cc3ccccc3C1)C2	44.6	–	–	60.2	27.4	44.3	54.4	68.5	39	–	–	–	–	–	–	–	–	–
